Counter-ions that a name gives are not always drawn.
Biological target: T1, human αVβ6 (Homo sapiens, UniProt P06756+P18564)
T1 construct: purchased R & D systems 3817-AV
Assay: human αVβ6 HTRF binding assay
Conditions: recombinant human αVβ6 integrin, FITC-conjugated fibronectin
Protocol: All binding assays used the HTRF (homogeneous time resolved fluorescence) technology from Cisbio International, therefore all assays are described as HTRF binding assays. The assay results for the Examples are listed above together with the characterization data. The HTRF binding assays are established for the following integrins: human αVβ6, human αVβ1, human αVβ3, human αVβ5, and human αVβ8. All assays used the following assay buffer: 20 mM Tris, pH 7.4, 1 mM MgCl2, 1 mM MnCl2, 0.01% Tween 20, and 0.01% BSA. Alternatively, a SPA-based assay was used for evaluation of receptor binding.
The following describes the components and a representative procedure for the human αVβ6 HTRF binding assay: Recombinant human αVβ6 Integrin (R & D systems, 3817-AV) was biotinylated. Biotinylated human αVβ6 Integrin was added to assay vessel at a final concentration of 1.25 nM. FITC-conjugated fibronectin (Cytoskeleton, FNR02) was then added at the final concentration of 5 nM. The mixture was centrifuged at 600 rpm for three minutes using Thermo Fisher Heraeus Multifuge X3 centrifuge and then incubated at room temperature for an hour. Streptavidin Terbium (Cisbio international 610STLB) was then added at the final concentration of 0.625 nM. The resulting mixture was centrifuged at 600 rpm for three minutes using Thermo Fisher Heraeus Multifuge X3 centrifuge and then incubated at room temperature overnight in dark before reading HTRF signals. […]

T1 sequence (P06756 31-992 limits assumed): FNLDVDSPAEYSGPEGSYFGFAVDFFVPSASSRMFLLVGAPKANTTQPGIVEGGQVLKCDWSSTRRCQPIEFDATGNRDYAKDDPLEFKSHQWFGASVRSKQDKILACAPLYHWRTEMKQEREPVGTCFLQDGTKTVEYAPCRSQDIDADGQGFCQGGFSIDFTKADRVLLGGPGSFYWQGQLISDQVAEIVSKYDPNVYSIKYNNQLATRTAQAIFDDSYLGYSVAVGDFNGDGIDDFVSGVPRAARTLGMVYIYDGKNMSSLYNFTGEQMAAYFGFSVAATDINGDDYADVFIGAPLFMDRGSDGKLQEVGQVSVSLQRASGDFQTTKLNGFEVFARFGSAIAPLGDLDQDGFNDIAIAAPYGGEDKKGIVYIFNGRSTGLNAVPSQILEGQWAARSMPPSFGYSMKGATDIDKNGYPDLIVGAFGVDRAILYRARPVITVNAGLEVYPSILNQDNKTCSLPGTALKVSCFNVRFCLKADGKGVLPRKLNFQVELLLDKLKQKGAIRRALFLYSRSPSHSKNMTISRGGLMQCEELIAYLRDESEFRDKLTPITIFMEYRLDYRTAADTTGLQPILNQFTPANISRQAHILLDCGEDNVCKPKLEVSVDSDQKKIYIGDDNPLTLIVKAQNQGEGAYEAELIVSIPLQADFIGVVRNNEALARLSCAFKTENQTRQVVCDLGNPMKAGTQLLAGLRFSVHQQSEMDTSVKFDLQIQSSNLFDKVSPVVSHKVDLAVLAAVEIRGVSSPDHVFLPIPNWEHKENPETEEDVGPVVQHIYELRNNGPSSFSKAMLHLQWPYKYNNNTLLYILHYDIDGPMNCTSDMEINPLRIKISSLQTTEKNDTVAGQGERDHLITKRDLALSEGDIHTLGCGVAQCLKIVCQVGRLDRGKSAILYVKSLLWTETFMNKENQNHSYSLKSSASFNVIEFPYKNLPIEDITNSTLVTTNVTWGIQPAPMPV
T1 sequence (P18564 22-707 limits assumed): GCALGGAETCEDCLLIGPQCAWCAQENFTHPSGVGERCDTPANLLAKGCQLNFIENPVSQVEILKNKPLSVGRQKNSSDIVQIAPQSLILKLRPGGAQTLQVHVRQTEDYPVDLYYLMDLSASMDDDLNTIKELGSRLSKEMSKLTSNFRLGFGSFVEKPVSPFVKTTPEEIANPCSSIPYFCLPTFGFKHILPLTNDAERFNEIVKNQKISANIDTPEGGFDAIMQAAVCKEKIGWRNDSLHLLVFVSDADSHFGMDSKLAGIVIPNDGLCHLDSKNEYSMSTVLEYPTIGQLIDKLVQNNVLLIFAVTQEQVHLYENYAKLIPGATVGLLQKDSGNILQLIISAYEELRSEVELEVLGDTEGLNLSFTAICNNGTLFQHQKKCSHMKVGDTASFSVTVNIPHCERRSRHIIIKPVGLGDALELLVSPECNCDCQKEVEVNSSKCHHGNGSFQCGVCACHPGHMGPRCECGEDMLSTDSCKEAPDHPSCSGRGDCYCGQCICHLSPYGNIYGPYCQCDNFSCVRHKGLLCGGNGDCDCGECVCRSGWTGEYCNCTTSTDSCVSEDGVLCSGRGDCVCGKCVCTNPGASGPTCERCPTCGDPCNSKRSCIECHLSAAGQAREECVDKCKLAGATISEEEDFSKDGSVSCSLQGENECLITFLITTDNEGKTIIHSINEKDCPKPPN

IC50 [nM]	SMILES
390	COc1ccc([C@H](CC(=O)O)n2cc3ccc(Cc4cc5c(nc4C)NCCC5)cc3n2)cn1 [Example 8, (S)-3-(6-Methoxypyridin-3-yl)-3-(6-((2-methyl-5,6,7,8-tetrahydro-1,8-naphthyridin-3-yl)methyl)-2H-indazol-2-yl)propanoic acid]
1.5	Cc1cc(C)n(-c2cccc(C(CC(=O)O)n3ncc4cc(OCCc5ccc6c(n5)NCCC6)ccc43)c2)n1 (centres unmarked) [Example 68, 3-(3-(3,5-Dimethylpyrazol-1-yl)phenyl)-3-(5-(2-(5,6,7,8-tetrahydro-1,8-naphthyridin-2-yl)ethoxy)-1H-indazol-1-yl)propanoic acid, TFA]
18	COc1ncc([C@H](CC(=O)O)n2ncc3cc(OCCc4ccc5c(n4)NCCC5)ccc32)cn1 [Example 148, (S)-3-(2-methoxypyrimidin-5-yl)-3-(5-(2-(5,6,7,8-tetrahydro-1,8-naphthyridin-2-yl)ethoxy)-1H-indazol-1-yl)propanoic acid]
4.7	O=C(O)C[C@@H](c1cncc(C2OCCO2)c1)n1ncc2cc(OCCc3ccc4c(n3)NCCC4)ccc21 [Example 139, (S)-3-(5-(1,3-dioxolan-2-yl)pyridin-3-yl)-3-(5-(2-(5,6,7,8-tetrahydro-1,8-naphthyridin-2-yl)ethoxy)-1H-indazol-1-yl)propanoic acid]
130	CN(C)C(=O)c1cccc(C(CC(=O)O)n2ncc3cc(CCc4ccc5c(n4)NCCC5)ccc32)c1 (centres unmarked) [Example 24, 3-(3-(Dimethylcarbamoyl)phenyl)-3-(5-(2-(5,6,7,8-tetrahydro-1,8-naphthyridin-2-yl)ethyl)-1H-indazol-1-yl)propanoic acid]
3.2	O=C(O)CC(c1cc(Cl)cc(Cl)c1)n1ncc2cc(OCCc3ccc4c(n3)NCCC4)ccc21 (centres unmarked) [Example 43, 3-(3,5-Dichlorophenyl)-3-(5-(2-(5,6,7,8-tetrahydro-1,8-naphthyridin-2-yl)ethoxy)-1H-indazol-1-yl)propanoic acid, TFA]
5.9	O=C(O)CC(c1ccc2c(n1)NCCC2)n1ncc2cc(OCCc3ccc4c(n3)NCCC4)ccc21 (centres unmarked) [Example 116, 3-(5,6,7,8-Tetrahydro-1,8-naphthyridin-2-yl)-3-(5-(2-(5,6,7,8-tetrahydro-1,8-naphthyridin-2-yl)ethoxy)-1H-indazol-1-yl)propanoic acid, 2 TFA]
33	Cc1ncc([C@H](CC(=O)O)n2ncc3cc(OCCc4ccc5c(n4)N[C@H](C)CC5)ccc32)cn1 (single isomer, unassigned) [Example 176]
1100	CN(C)C(=O)c1cccc([C@@H](CC(=O)O)n2ncc3cc(OCCc4ccc5c(n4)NCCC5)ccc32)c1 [Example 37, (R)-3-(3-(Dimethylcarbamoyl)phenyl)-3-(5-(2-(5,6,7,8-tetrahydro-1,8-naphthyridin-2-yl)ethoxy)-1H-indazol-1-yl)propanoic acid]
41	Cn1cc2ncc(C(CC(=O)O)n3ncc4cc(OCCc5ccc6c(n5)NCCC6)ccc43)cc2n1 (centres unmarked) [Example 136, 3-(2-Methyl-2H-pyrazolo[4,3-b]pyridin-6-yl)-3-(5-(2-(5,6,7,8-tetrahydro-1,8-naphthyridin-2-yl)ethoxy)-1H-indazol-1-yl)propanoic acid]
137	O=C(O)C[C@H](c1cnc2ccccc2n1)n1ncc2cc(OCCc3ccc4c(n3)NCCC4)ccc21 [Example 16, (R)-3-(Quinoxalin-2-yl)-3-(5-(2-(5,6,7,8-tetrahydro-1,8-naphthyridin-2-yl)ethoxy)-1H-indazol-1-yl)propanoic acid]
19	COc1ccc([C@H](CC(=O)O)n2cc3cc(CCc4ccc5c(n4)NCCC5)ccc3n2)cn1 [Example 64, (S)-3-(6-Methoxypyridin-3-yl)-3-(5-(2-(5,6,7,8-tetrahydro-1,8-naphthyridin-2-yl)ethyl)-2H-indazol-2-yl)propanoic acid]
2700	O=C(O)CC(c1cc(Cl)cc(Cl)c1)n1ncc2c(CCCc3ccc4c(n3)NCCC4)cccc21 (centres unmarked) [Example 18, 3-(3,5-Dichlorophenyl)-3-(4-(3-(5,6,7,8-tetrahydro-1,8-naphthyridin-2-yl)propyl)-1H-indazol-1-yl)propanoic acid]
120	CN(C)Cc1cccc(C(CC(=O)O)n2ncc3cc(CCc4ccc5c(n4)NCCC5)ccc32)c1 (centres unmarked) [Example 26, 3-(3-((Dimethylamino)methyl)phenyl)-3-(5-(2-(5,6,7,8-tetrahydro-1,8-naphthyridin-2-yl)ethyl)-1H-indazol-1-yl)propanoic acid]
33	COc1cnc(C(CC(=O)O)n2ncc3cc(OCCc4ccc5c(n4)NCCC5)ccc32)cn1 (centres unmarked) [Example 79, 3-(5-Methoxypyrazin-2-yl)-3-(5-(2-(5,6,7,8-tetrahydro-1,8-naphthyridin-2-yl)ethoxy)-1H-indazol-1-yl)propanoic acid, TFA]
1900	CC(C)(O)c1cncc([C@@H](CC(=O)O)n2ncc3cc(OCCc4ccc5c(n4)NCCC5)ccc32)c1 [Example 145, (R)-3-(5-(2-hydroxypropan-2-yl)pyridin-3-yl)-3-(5-(2-(5,6,7,8-tetrahydro-1,8-naphthyridin-2-yl)ethoxy)-1H-indazol-1-yl)propanoic acid]
7.2	O=C(O)CC(c1ccc2cccnc2n1)n1ncc2cc(OCCc3ccc4c(n3)NCCC4)ccc21 (centres unmarked) [Example 96, 3-(1,8-Naphthyridin-2-yl)-3-(5-(2-(5,6,7,8-tetrahydro-1,8-naphthyridin-2-yl)ethoxy)-1H-indazol-1-yl)propanoic acid, 2 TFA]
3300	O=C(O)CC(CCC(F)(F)F)n1ncc2c(CCCc3ccc4c(n3)NCCC4)cccc21 (centres unmarked) [Example 31, 6,6,6-Trifluoro-3-(4-(3-(5,6,7,8-tetrahydro-1,8-naphthyridin-2-yl)propyl)-1H-indazol-1-yl)hexanoic acid]
1	O=C(O)C[C@@H](c1cncc(N2CCCC2=O)c1)n1ncc2cc(OCCc3ccc4c(n3)NCCC4)ccc21 [Example 151, (5)-3-(5-(2-oxopyrrolidin-1-yl)pyridin-3-yl)-3-(5-(2-(5,6,7,8-tetrahydro-1,8-naphthyridin-2-yl)ethoxy)-1H-indazol-1-yl)propanoic acid]
5000	COc1ccc([C@@H](CC(=O)O)n2ncc3cc(OCCc4ccc5c(n4)NCCO5)ccc32)cn1 [Example 181, (R)-3-(5-(2-(3,4-dihydro-2H-pyrido[3,2-b][1,4]oxazin-6-yl)ethoxy)-1H-indazol-1-yl)-3-(6-methoxypyridin-3-yl)propanoic acid]
804	O=C(O)CC(Cc1ccc(F)cc1)n1ncc2cc(OCCc3ccc4c(n3)NCCC4)ccc21 (centres unmarked) [Example 78, 4-(4-Fluorophenyl)-3-(5-(2-(5,6,7,8-tetrahydro-1,8-naphthyridin-2-yl)ethoxy)-1H-indazol-1-yl)butanoic acid, TFA]
320	Cc1cc(C)c(S(=O)(=O)NC(Cn2ncc3cc(OCCc4ccc5c(n4)NCCC5)ccc32)C(=O)O)c(C)c1 (centres unmarked) [Example 13, 3-(5-(2-(5,6,7,8-Tetrahydro-1,8-naphthyridin-2-yl)ethoxy)-1H-indazol-1-yl)-2-((2,4,6-trimethylphenyl)sulfonamido)propanoic acid]
340	O=C(NC(Cn1ncc2c(OCCc3ccc4c(n3)NCCC4)cccc21)C(=O)O)OCc1ccccc1 (centres unmarked) [Example 39, 2-(((Benzyloxy)carbonyl)amino)-3-(4-(2-(5,6,7,8-tetrahydro-1,8-naphthyridin-2-yl)ethoxy)-1H-indazol-1-yl)propanoic acid]
